From US8158152B2, “Lyophilization process and products obtained thereby” (SciDose LLC, priority 2005, dated 2012)

Assays:
[1] = cited from earlier work
[2] = Solubility as stated in words; type: physicochemical; details: in the presence of small quantities of HCl

| Compound | solubility in solvents, as generally considered ([1]; general knowledge) | solubility in non-aqueous solvents (e.g. THF) [2] | solubility in ethanol ([1]; ethanol) | solubility in water ([1]; water) |
| --- | --- | --- | --- | --- |
| CCC(C)n1ncn(-c2ccc(N3CCN(c4ccc(OCC5COC(Cn6cncn6)(c6ccc(Cl)cc6Cl)O5)cc4)CC3)cc2)c1=O (stereo not shown) [itraconazole] | soluble in methylene chloride only | high concentrations of itraconazole can be dissolved |  |  |
| O=P1(N(CCCl)CCCl)NCCCO1 (stereo not shown) [cyclophosphamide] |  |  | highly soluble | sparingly soluble |
